One data set deals with CYP-2C9 (Homo sapiens (Human), UniProt P11712). The experiment in a line: CYP panel profile: P450 inhibition, CYP-2C9. The class given is in vitro ADME. The conditions noted are these: human liver microsomes. The method, then:
(§1) 5. CYP Panel Profile: P450 Inhibition
(§2) From 10 mM stock solutions of test compounds, a dilution plate was prepared diluting serially starting from 5 mM up to 2 μM in Acetonitrile/DMSO or Methanol/DMSO Human liver Microsomes were added at required concentration as per specific CYP isoform in a deep well assay plate (1A2, 2C9, 2D6, 2B6, 2C8, 2C19, and 3A4). Compounds were spiked in all wells from dilution plate at final concentrations starting from 50 μM up to 0.02 μM, except for positive and negative control. Specific substrate were added to all wells and reactions were pre-incubated for 10 min. To start reactions, NADPH was added to all wells at 1 mM final concentration. Assay plate was mixed by vortexing and incubated at 37° C. for […] for 3A4.20 min for (1A2, 2C9, 2B6, 2C8, 2D6) and […] for 2C19. A quencher with chilled acetonitrile suitable internal standard was added. Samples were centrifuged and supernatants were collected and subjected to LC-MS/MS analysis for determination.
(In general: Microsomes from liver hold many membrane-bound enzymes, among them those of drug oxidation.)

In the next data set the target is CYP-2B6 (Homo sapiens (Human), UniProt P20813). The experiment in a line: CYP panel profile: P450 inhibition, CYP-2B6. The class given is in vitro ADME. The conditions noted are these: human liver microsomes. The method, then: as §1, §2
The next data set deals with CYP-1A2 (Homo sapiens (Human), UniProt P05177). Kind of data set: CYP panel profile: P450 inhibition, CYP-1A2. The class given is in vitro ADME. The method, then: as §1, §2
For another data set, the target named is CYP-2D6 (Homo sapiens (Human), UniProt P10635). Kind of data set: CYP panel profile: P450 inhibition, CYP-2D6. The class given is in vitro ADME. To be noted: human liver microsomes. The method, then: as §1, §2
In a further data set the target is CYP-2C19 (Homo sapiens (Human), UniProt P33261). Kind of data set: CYP panel profile: P450 inhibition, CYP-2C19. The class given is in vitro ADME. To be noted: human liver microsomes. The method, then: as §1, §2
The target of data set [1] is aryl hydrocarbon receptor (AhR) (Mus musculus (Mouse), UniProt P30561). The experiment in a line: AhR ligand screening: AhRE-luciferase reporter in transfected Hepa1 cells. The format is cell-based. The conditions noted are these: for Fold @ 1 nM: fold change of luciferase expression at 1 nM test compound relative to vehicle (0.1% DMSO); for Fold @ 100 nM: fold change of luciferase expression at 100 nM test compound relative to vehicle (0.1% DMSO); for Fold @ 10 uM: fold change of luciferase expression at 10 uM test compound relative to vehicle (0.1% DMSO); for Fold relative to benchmark @ 100 nM: luciferase expression at 100 nM test compound relative to 100 nM benchmark compound 11-cl-BBQ. An outline of the steps: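 Mouse Hepa1 cells transfected with an AhRE-luciferase reporter were plated at 1×10^4 cells/well, grown overnight, then exposed to compounds. Cell lysates were assayed for luciferase by luminometry, with results given as fold induction over 0.1% DMSO vehicle.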
In general terms: In a reporter assay the amount or activity of a reporter protein is the signal.

The target in another data set is CYP-3A4 (Homo sapiens (Human), UniProt P08684). The experiment in a line: CYP panel profile: P450 inhibition, CYP-3A4. The format is in vitro ADME. To be noted: human liver microsomes. The method, then: as §1, §2
The next data set deals with CYP-2C8 (Homo sapiens (Human), UniProt P10632). Kind of data set: CYP panel profile: P450 inhibition, CYP-2C8. The class given is in vitro ADME. To be noted: human liver microsomes. The method, then:
as §1, §2

Where [2] appears, read: human liver microsomes, read-out: CYP-1A2 IC50.

Where two headings read alike, the source gives them in different places.

Chain of CYP-2D6 (P10635 whole entry): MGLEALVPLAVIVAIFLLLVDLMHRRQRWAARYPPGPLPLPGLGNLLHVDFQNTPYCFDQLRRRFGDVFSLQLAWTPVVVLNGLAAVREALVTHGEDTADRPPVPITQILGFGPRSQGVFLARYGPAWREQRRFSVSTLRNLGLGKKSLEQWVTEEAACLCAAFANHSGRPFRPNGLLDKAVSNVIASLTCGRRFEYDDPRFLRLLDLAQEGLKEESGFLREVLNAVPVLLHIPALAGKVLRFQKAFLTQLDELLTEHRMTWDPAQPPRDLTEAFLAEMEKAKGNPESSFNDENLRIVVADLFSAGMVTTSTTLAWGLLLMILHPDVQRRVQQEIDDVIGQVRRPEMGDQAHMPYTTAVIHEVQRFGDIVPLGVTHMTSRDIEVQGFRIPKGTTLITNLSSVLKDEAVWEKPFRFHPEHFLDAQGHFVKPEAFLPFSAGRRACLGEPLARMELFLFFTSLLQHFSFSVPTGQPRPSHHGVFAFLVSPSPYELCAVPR
Chain of CYP-2C9 (P11712 whole entry): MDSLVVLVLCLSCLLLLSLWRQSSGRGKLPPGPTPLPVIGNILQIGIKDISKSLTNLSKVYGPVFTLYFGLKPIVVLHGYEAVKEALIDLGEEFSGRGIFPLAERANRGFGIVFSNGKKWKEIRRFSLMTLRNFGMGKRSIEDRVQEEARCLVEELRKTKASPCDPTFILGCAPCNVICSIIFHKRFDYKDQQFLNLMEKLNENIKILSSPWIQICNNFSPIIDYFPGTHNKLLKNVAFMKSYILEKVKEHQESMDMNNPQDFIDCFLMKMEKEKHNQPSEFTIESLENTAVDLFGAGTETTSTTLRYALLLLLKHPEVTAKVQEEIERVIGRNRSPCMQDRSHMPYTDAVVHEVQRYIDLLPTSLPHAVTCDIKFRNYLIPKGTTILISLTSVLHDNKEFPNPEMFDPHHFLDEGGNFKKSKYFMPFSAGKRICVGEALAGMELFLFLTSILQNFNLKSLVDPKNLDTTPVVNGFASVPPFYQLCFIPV
Chain of aryl hydrocarbon receptor (AhR) (P30561 10-805): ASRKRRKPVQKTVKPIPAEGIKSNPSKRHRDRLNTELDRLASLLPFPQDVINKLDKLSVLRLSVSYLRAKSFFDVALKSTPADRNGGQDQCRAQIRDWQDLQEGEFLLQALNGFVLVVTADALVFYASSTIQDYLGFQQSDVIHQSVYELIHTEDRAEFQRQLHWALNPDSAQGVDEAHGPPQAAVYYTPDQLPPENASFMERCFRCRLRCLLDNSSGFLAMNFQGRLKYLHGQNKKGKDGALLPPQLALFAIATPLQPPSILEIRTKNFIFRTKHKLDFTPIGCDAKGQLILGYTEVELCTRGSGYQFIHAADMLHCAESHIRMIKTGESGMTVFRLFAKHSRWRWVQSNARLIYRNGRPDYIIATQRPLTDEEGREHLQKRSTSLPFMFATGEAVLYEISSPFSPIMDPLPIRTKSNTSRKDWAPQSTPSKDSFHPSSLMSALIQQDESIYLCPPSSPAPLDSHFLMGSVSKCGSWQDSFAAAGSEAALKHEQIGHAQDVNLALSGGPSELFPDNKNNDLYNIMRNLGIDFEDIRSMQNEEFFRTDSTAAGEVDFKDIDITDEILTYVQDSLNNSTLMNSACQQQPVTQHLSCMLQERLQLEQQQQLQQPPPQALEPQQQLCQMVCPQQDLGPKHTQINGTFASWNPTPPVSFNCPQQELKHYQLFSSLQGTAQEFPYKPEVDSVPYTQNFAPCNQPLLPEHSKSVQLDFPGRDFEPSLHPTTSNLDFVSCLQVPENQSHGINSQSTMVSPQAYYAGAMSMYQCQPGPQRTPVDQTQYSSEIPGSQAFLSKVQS
Chain of aryl hydrocarbon receptor (AhR) (P53762 whole entry partner): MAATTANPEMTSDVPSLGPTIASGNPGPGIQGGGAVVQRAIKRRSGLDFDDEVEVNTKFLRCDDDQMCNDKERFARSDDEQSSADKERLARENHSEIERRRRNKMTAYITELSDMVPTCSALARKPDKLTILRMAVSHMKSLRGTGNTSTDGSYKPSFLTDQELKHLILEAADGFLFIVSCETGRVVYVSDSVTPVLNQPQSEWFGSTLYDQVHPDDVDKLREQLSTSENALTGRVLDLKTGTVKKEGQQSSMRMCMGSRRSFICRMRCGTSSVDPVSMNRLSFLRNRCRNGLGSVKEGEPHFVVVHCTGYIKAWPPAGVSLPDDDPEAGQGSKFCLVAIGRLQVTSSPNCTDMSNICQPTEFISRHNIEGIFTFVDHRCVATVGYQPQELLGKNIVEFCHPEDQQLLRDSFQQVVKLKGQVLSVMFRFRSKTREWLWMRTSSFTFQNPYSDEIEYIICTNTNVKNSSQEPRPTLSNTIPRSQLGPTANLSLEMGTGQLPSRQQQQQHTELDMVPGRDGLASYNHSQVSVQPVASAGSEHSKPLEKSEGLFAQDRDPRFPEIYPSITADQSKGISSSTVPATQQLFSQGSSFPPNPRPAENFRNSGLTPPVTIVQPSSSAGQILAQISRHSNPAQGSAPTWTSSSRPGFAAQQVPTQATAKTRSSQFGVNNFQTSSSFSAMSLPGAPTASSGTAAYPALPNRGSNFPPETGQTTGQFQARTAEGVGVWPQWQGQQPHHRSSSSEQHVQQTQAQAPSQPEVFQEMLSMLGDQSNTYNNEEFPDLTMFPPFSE
Chain of CYP-1A2 (P05177 whole entry): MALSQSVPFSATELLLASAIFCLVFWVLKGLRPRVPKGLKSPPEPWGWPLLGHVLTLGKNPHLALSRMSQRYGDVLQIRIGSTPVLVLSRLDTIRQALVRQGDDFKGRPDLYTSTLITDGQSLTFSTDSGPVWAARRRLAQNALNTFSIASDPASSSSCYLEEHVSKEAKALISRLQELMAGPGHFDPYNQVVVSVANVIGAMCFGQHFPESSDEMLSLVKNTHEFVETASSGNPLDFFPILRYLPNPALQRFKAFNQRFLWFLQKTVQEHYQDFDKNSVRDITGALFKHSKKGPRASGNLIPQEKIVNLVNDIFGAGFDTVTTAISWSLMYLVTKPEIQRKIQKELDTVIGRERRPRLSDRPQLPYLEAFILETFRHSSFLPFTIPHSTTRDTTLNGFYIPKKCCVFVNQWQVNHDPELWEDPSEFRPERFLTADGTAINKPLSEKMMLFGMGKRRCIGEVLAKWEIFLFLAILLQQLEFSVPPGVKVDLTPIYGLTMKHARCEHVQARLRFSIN
Chain of CYP-2C8 (P10632 whole entry): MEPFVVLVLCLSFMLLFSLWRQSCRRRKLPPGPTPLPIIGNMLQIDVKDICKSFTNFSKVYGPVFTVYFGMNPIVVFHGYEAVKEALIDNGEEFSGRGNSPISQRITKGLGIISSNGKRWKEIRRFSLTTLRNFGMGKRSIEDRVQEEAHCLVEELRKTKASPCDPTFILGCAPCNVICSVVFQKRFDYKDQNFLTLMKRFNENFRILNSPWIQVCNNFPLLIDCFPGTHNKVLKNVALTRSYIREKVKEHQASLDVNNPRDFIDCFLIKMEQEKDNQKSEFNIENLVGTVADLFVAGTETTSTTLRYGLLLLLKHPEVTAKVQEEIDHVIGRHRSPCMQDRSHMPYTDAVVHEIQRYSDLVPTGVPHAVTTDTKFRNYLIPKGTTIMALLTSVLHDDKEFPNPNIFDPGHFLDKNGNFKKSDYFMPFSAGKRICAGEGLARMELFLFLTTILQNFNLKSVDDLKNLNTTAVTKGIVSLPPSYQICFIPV
Chain of CYP-2C19 (P33261 whole entry): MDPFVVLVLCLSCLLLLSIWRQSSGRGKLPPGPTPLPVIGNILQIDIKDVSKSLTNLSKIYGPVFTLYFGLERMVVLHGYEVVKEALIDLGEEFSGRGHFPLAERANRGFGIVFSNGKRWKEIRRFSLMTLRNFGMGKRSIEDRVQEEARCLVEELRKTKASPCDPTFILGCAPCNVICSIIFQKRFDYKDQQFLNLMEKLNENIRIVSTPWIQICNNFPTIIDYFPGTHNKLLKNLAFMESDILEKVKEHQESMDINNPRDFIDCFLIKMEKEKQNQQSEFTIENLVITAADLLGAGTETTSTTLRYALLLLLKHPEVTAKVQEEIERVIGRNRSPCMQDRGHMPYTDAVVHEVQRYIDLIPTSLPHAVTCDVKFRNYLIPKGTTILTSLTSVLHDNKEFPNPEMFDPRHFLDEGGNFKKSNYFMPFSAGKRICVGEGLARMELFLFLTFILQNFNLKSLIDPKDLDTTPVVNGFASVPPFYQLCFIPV
Chain of CYP-3A4 (P08684 whole entry): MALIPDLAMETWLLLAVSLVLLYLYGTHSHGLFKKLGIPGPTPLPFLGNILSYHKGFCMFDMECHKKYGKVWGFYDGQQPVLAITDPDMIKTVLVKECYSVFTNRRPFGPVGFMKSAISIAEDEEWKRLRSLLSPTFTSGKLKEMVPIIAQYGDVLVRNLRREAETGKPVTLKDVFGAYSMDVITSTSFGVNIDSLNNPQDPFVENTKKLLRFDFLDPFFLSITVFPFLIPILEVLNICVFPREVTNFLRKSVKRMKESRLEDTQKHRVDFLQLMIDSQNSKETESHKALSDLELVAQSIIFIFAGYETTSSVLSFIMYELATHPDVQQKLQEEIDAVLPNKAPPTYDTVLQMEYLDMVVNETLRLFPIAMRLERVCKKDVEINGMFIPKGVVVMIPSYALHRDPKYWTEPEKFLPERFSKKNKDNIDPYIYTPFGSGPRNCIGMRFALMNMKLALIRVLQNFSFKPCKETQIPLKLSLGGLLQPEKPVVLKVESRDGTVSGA

Regarding `O=C(c1ccc(F)cc1)n1c(-c2cccc3ccccc23)nc2cc(Cl)ccc21` [Compound 586], the IC50 – broadly, the concentration at which inhibition is half-maximal – against CYP-2C9 is 7.9 µM; on CYP-2B6, 22 µM; at CYP-1A2 (setting [2]), 1.7 µM; against CYP-2D6, above 50 µM; on CYP-2C19, 7.1 µM; against CYP-3A4 it was 1.3 µM. The compound also came in with a concentration for half-maximal inhibition (IC50) against CYP-2C8 of 9.1 µM. In addition, the “Fold @ 1 nM” value in data set [1] came to 7 fold. Further, the “Fold @ 100 nM” value in data set [1] was found to be 20 fold. Further, the “Fold @ 10 uM” value in data set [1] came to 18 fold. In addition, the “Fold relative to benchmark @ 100 nM” value in data set [1] was 1.33 fold.

Turning to `COc1ccc(C(=O)n2c(-c3cccc4ccccc34)nc3cc(Cl)ccc32)cc1` [Compound 535, (5-chloro-2-(naphthalen-1-yl)-1H-benzo[d]imidazol-1-yl)(4-methoxyphenyl)methanone], the half-maximal inhibitory concentration (IC50) on CYP-2C9 is 2.5 µM; at CYP-2B6, 21.5 µM; at CYP-1A2 (setting [2]) it was 3.9 µM; at CYP-2D6, above 50 µM; against CYP-2C19, 2.1 µM; on CYP-3A4 it was 0.2 µM. Moreover, the half-inhibitory concentration (IC50) at CYP-2C8 was found to be 21.8 µM. In addition, in data set [1], the “Fold @ 1 nM” value is 1 fold. The “Fold @ 100 nM” value in data set [1] was determined as 38 fold. The “Fold @ 10 uM” value in data set [1] came to 44 fold. Moreover, the “Fold relative to benchmark @ 100 nM” value in data set [1] amounted to 0.95 fold.

Regarding `O=C(c1ccc(F)c(F)c1)n1c(-c2cccc3ccccc23)nc2cc(Cl)ccc21` [Compound 529], the IC50 on CYP-2C9 is 3.5 µM; against CYP-2B6, 9.6 µM; at CYP-1A2 (setting [2]) it was 0.6 µM; against CYP-2D6 it was above 50 µM; at CYP-2C19, 3.6 µM; at CYP-3A4, 1.2 µM. Half-maximal inhibition on CYP-2C8 (IC50) was put at 9.6 µM. In addition, in data set [1], the “Fold @ 1 nM” value is listed as 2 fold. Moreover, the “Fold @ 100 nM” value in data set [1] is on record as 41 fold. Besides, in data set [1], the “Fold @ 10 uM” value is listed as 52 fold. Besides, the “Fold relative to benchmark @ 100 nM” value in data set [1] is listed as 1.03 fold.

For `COC(=O)c1ccc2c(c1)nc(-c1cccc3ccccc13)n2C(=O)c1ccc(F)c(F)c1` [Compound 848], the IC50 was 6.3 µM at CYP-2C9; 16.7 µM against CYP-2B6; 2.6 µM on CYP-1A2 (setting [2]); 2.9 µM on CYP-2D6; 1.1 µM against CYP-2C19; 13.7 µM at CYP-3A4. This compound also returned an IC50 at CYP-2C8 of 3.5 µM. For the same compound, the “Fold @ 1 nM” value in data set [1] is 1 fold. The “Fold @ 100 nM” value in data set [1] worked out at 1 fold. In data set [1], the “Fold @ 10 uM” value was 5 fold. Besides, the “Fold relative to benchmark @ 100 nM” value in data set [1] is listed as 0.04 fold.

Consider `COC(=O)c1ccc2nc(-c3cccc4ccccc34)n(C(=O)c3ccc(F)c(F)c3)c2c1` [Compound 849], for which the IC50 is 7.7 µM against CYP-2C9; above 48 µM on CYP-2B6; 15.1 µM at CYP-1A2 (setting [2]); 19.3 µM against CYP-2D6; 1.5 µM against CYP-2C19; above 50 µM on CYP-3A4. The compound further returned an IC50 at CYP-2C8 of 4.1 µM. The “Fold @ 1 nM” value in data set [1] turned out to be 1 fold. Besides, the “Fold @ 100 nM” value in data set [1] was 1 fold. Moreover, in data set [1], the “Fold @ 10 uM” value came out at 1 fold. In addition, the “Fold relative to benchmark @ 100 nM” value in data set [1] was determined as 0.04 fold.

For the compound `O=C(c1c(F)cc(Br)cc1F)n1c(-c2cccc3ccccc23)nc2cc(Cl)ccc21` [Compound 638], the IC50 against CYP-2C9 came to 5.2 µM; against CYP-2B6 it was 11.6 µM; at CYP-1A2 (setting [2]), 0.3 µM; on CYP-2D6, 14.5 µM; against CYP-2C19, 3.4 µM; at CYP-3A4, 8.1 µM. Half-maximal inhibition on CYP-2C8 (IC50) was put at 1.8 µM. In addition, the “Fold @ 1 nM” value in data set [1] turned out to be 1 fold. For the same compound, in data set [1], the “Fold @ 100 nM” value turned out to be 12 fold. Besides, the “Fold @ 10 uM” value in data set [1] is reported as 20 fold. Besides, the “Fold relative to benchmark @ 100 nM” value in data set [1] is listed as 1.17 fold.

Take `O=C(c1ccccc1)n1c(-c2cccc3ccccc23)nc2cc(Cl)c(Cl)cc21` [Compound 693]: the concentration for half-maximal inhibition (IC50) at CYP-2C9 was 11.6 µM; at CYP-2B6, above 50 µM; at CYP-1A2 (setting [2]) it was 8.6 µM; against CYP-2D6 it was above 50 µM; on CYP-2C19 it was 24.1 µM; at CYP-3A4, 2 µM. This compound gave an IC50 at CYP-2C8 of 3.5 µM. In data set [1], the “Fold @ 1 nM” value is 2 fold. Moreover, the “Fold @ 100 nM” value in data set [1] came out at 32 fold. Further, the “Fold @ 10 uM” value in data set [1] worked out at 87 fold. In addition, in data set [1], the “Fold relative to benchmark @ 100 nM” value was 1.23 fold.

On to `O=C(C1CCCCC1)n1c(-c2cccc3ccccc23)nc2ccc(Cl)cc21` [Compound 640], for which the half-inhibitory concentration (IC50) at CYP-2C9 was found to be 4.5 µM; against CYP-2B6, 31.1 µM; at CYP-1A2 (setting [2]), 0.6 µM; against CYP-2D6 it was 29 µM; on CYP-2C19, 2.4 µM; at CYP-3A4, 3.8 µM. This compound came in with an IC50 against CYP-2C8 of 2.3 µM. Moreover, the “Fold @ 1 nM” value in data set [1] turned out to be 1 fold. In data set [1], the “Fold @ 100 nM” value came to 10 fold. Also, in data set [1], the “Fold @ 10 uM” value is reported as 15 fold. Besides, the “Fold relative to benchmark @ 100 nM” value in data set [1] is 1.21 fold.

For `O=C(c1ccc(F)c(F)c1)n1c(-c2ccc(-c3ccccc3)cc2)nc2cc(Cl)ccc21` [Compound 643], the IC50 was 9.2 µM at CYP-2C9; above 50 µM against CYP-2B6; 20.7 µM at CYP-1A2 (setting [2]); above 50 µM against CYP-2D6; above 50 µM on CYP-2C19; above 50 µM at CYP-3A4. This compound returned an IC50 against CYP-2C8 of 12.3 µM. The “Fold @ 1 nM” value in data set [1] was found to be 1 fold. Besides, the “Fold @ 100 nM” value in data set [1] worked out at 1 fold. Further, in data set [1], the “Fold @ 10 uM” value is 2 fold. In addition, the “Fold relative to benchmark @ 100 nM” value in data set [1] came out at 0.11 fold.

In the case of `O=C(c1ccccc1)n1c(-c2cccc3ccccc23)nc2ccc(Cl)cc21` [Compound 495], the IC50 on CYP-2C9 is 5.6 µM; against CYP-2B6, 19.3 µM; at CYP-1A2 (setting [2]), 0.3 µM; against CYP-2D6, 32.6 µM; against CYP-2C19, 1.4 µM; against CYP-3A4, 5.3 µM. Further, the half-inhibitory concentration (IC50) against CYP-2C8 is 1.9 µM. Moreover, the “Fold @ 1 nM” value in data set [1] is given as 2.3 fold. Moreover, in data set [1], the “Fold @ 100 nM” value came to 25 fold. Besides, the “Fold @ 10 uM” value in data set [1] came out at 59 fold. For the same compound, the “Fold relative to benchmark @ 100 nM” value in data set [1] is 0.81 fold.

Consider `COc1ccc(C(=O)n2c(-c3cccc4ccccc34)nc3ccc(Cl)cc32)cc1` [Compound 536, (6-chloro-2-(naphthalen-1-yl)-1H-benzo[d]imidazol-1-yl)(4-methoxyphenyl)methanone], for which the IC50 was 4.8 µM against CYP-2C9; 16 µM on CYP-2B6; 0.6 µM at CYP-1A2 (setting [2]); above 50 µM on CYP-2D6; 2.6 µM on CYP-2C19; 1.7 µM against CYP-3A4. The compound further displayed a 50% inhibitory concentration (IC50) against CYP-2C8 of 17.1 µM. In data set [1], the “Fold @ 1 nM” value is 1 fold. Besides, the “Fold @ 100 nM” value in data set [1] amounted to 39 fold. In addition, in data set [1], the “Fold @ 10 uM” value came out at 41 fold. In data set [1], the “Fold relative to benchmark @ 100 nM” value is recorded as 0.98 fold.

With `Clc1ccc2c(c1)nc1n2Cc2cccc3cccc-1c23` [Compound 435, 6-chloro-3,10-diazapentacyclo[10.7.1.0^2,10.0^4,9.0^16,20]icosa-1(19),2,4(9),5,7,12,14,16(20),17-nonaene], the IC50 at CYP-2C9 was above 50 µM; at CYP-2B6, above 50 µM; against CYP-1A2, below 0.02 µM; against CYP-2D6 it was above 50 µM; at CYP-2C19 it was above 50 µM; at CYP-3A4, 5.3 µM. This compound also registered an IC50 against CYP-2C8 of 19.2 µM. Besides, in data set [1], the “Fold @ 1 nM” value was 4 fold. Besides, the “Fold @ 100 nM” value in data set [1] is on record as 28 fold. Further, the “Fold @ 10 uM” value in data set [1] amounted to 60 fold. Further, the “Fold relative to benchmark @ 100 nM” value in data set [1] turned out to be 0.7 fold.

These data come from patent US12473262B2, “Aryl hydrocarbon receptor activators” (Oregon State University, priority 2019, dated 2025).
